The values below come from patent US12454527B2, “Conjugate monomethyl auristatin E to obtain a composition for treatment of prostate cancer” (priority 2019, dated 2025).

Series [1] in a line: Chronic toxicity study, intravenous once every 3 weeks, rats. In kind it is in vivo. The source says: (§1) Chronic toxicity study of Conjugate (1) product on Rats and rabbits.
(§2) • 1. Conjugate (I). • 2. Solubilizer Pluronic F127—in the amount, five-fold greater than the conjugate amount by weight. • 3. Diluent—Haemodes infusion solution. • 4. Dimethyl sulfoxide—in the amount of 5% of the prepared volume.
(§3) A 1 00 white ° inbred mature male rats about 2 months old with a body weight of 190-210 g and 60 sexually mature male rabbits of the Soviet Chinchilla breed about 2 months old with a body weight of […] were involved in the experiment.
(§4) The study design determined the intravenous administration of the test drugs once every 3 weeks for 3 months (a total of 4 injections) for the experiment of chronic toxicity determination. The local irritant effect of the products within intravenous administration will be studied together with the chronic toxicity study.
(§5) Each animal received the intravenous injection of the test drug or the reference drug in a volume not exceeding the acceptable volume for a single injection of 2 mL for rats and 20 mL for rabbits. The products were replaced with a Pluronic solution with DMSO in Haemodes in the control group of animals. The duration of observation for laboratory animals was 4 weeks (intermediate stage).
(§6) Apparent signs of intoxication were evaluated daily. During the study, integral indicators of animal health were recorded (see Tables 15. 16, 17).

Series [2] can be described thus: Chronic toxicity study, intravenous once every 3 weeks, rabbits. In kind it is in vivo.
From the text: as §1, §2, §3, §4, §5, §6

“Also recorded” adds a separate entry of the source. Non-standard residues stand in square brackets, D forms with d. Residues, ends and D or L forms follow the SMILES beside them. *: point of attachment. Dolaproine = CO[C@@H]([C@@H]1CCCN1)[C@@H](C)C(=O)O; Dil = CC[C@H](C)[C@H](NC)[C@@H](CC(=O)O)OC; X2 = C[C@@H](N*)[C@@H](O)c1ccccc1; NMeV = CN[C@H](C(=O)O)C(C)C

With `CC[C@H](C)[C@@H]([C@@H](CC(=O)N1CCC[C@H]1[C@H](OC)[C@@H](C)C(=O)N[C@H](C)[C@@H](O)c1ccccc1)OC)N(C)C(=O)[C@@H](NC(=O)[C@@H](NC)C(C)C)C(C)C` [MMAE, Monomethyl auristatin E] (H-[NMeV]V[Dil][Dolaproine]-X2), the Signs of intoxication entry in series [1] (male rats, group 5, 10 μg/kg intravenously 1 time in 3 weeks) is “with impaired movement; also recorded: coordination, shortness of breath,; also recorded: diarrhea; also recorded: position, tremor, the hind limb; also recorded: the hindlimb paresis; rats No. 3-5 -; also recorded: decreased motor activity, the hind; also recorded: hindlimb paresis, porphyrin secretion”; in series [2] (male rabbits, group 10, 5.4 μg/kg, about a day after administration and before death) it was “superficial respiration and adynamia”. In addition, in series [1] (male rats, group 5, 10 μg/kg, 30 Apr. 2019), the “Signs of intoxication: loss of body weight” value lay within 15 to 20 g. In addition, the Necropsy entry in series [1] (male rats, group 5, 10 μg/kg, animals No. 1, 5, 6 and No. 3) was “severely inflated; adrenal glands were 2-fold; also recorded: increase; blood in the kidneys, pink renal pelvis; also recorded: hemorrhages and ulcers; the kidneys were pale,; also recorded: liver was granular, palish”; in series [2] (male rabbits, group 10, 5.4 μg/kg, rabbit No. 4), “grayish tint; thymus had hemorrhages;”. The “Animals survived up to the second injection” value in series [1] (rats, chronic, reference drug) is “only one rat animal”; in series [2] (rabbits, chronic, reference drug) it was “no rabbits”. In addition, the “Chronic toxicity (overall)” value in series [1] (rats, i.v. once every 3 weeks, intermediate stage 4 weeks) is listed as “high toxicity”; in series [2] (rabbits, i.v. once every 3 weeks, intermediate stage 4 weeks), “high toxicity”. For the same compound, in series [2] (male rabbits, group 10, 5.4 μg/kg, after administration), the “Signs of intoxication: the intake of feed and water” value was “decreased. About a day after”.
